As a reminder, the inhibition is the percentage by which the read-out fell short of the control. One may read the IC50 as the concentration at which inhibition is half-maximal.

Values after ≈ are worked out from the molar mass of the structure shown.

Data on five compounds can be found in ChEMBL document CHEMBL4613212, “Insights of synthetic analogues of anti-leprosy agents” (Bioorg Med Chem, 2019).

Data set [1] deals with Mycobacterium tuberculosis. Nature of the data set: Antimycobacterial activity against Mycobacterium tuberculosis H37Rv infected in CF-1 mouse assessed as change in survival time at 5 mg/kg administrated daily for 14 days with food relative to control. The format is functional.
Data set [2] has as its system Mycobacterium tuberculosis. Nature of the data set: Antimycobacterial activity against Mycobacterium tuberculosis H37Rv infected in CF-1 mouse assessed as change in survival time at 11 mg/kg administrated daily for 14 days with food relative to control. The format is functional.
The subject of data set [3] is Mycobacterium tuberculosis. Briefly: Antimycobacterial activity against Mycobacterium tuberculosis H37Rv infected in CF-1 mouse assessed as change in survival time at 3 mg/kg administrated daily for 14 days with food relative to control. The format is functional.
A short description of data set [4]: Cytotoxicity against LPS-induced human monocytes assessed as cell viability at 25 uM by tryphan blue staining based assay relative to control. On the set-up: species or system Monocyte. The note with it: read-out: Activity.
Data set [5] deals with Monocyte. Nature of the data set: Antiinflammatory activity in human monocytes assessed as inhibition of LPS-induced TNFaplha production at 5 uM preincubated for 15 mins followed by LPS addition and measured after 4 hrs by ELISA relative to control. The class given is functional.
The nature of data set [6]: Cytotoxicity against LPS-induced human monocytes assessed as cell viability at 0.5 uM by tryphan blue staining based assay relative to control. The note with it: read-out: Activity. On the set-up: species or system Monocyte.
In data set [7] the test system is Monocyte. Nature of the data set: Antiinflammatory activity in human monocytes assessed as inhibition of LPS-induced TNFaplha production at 50 uM preincubated for 15 mins followed by LPS addition and measured after 4 hrs by ELISA relative to control. The format is functional. (ELISA stands for enzyme-linked immunosorbent assay.)
Data set [8] concerns Monocyte. Briefly: Antiinflammatory activity in human monocytes assessed as inhibition of LPS-induced TNFaplha production at 25 uM preincubated for 15 mins followed by LPS addition and measured after 4 hrs by ELISA relative to control. The class given is functional.
Data set [9] has as its system Monocyte. Nature of the data set: Antiinflammatory activity in human monocytes assessed as inhibition of LPS-induced TNFaplha production at 0.5 uM preincubated for 15 mins followed by LPS addition and measured after 4 hrs by ELISA relative to control. The class given is functional.
A short description of data set [10]: Cytotoxicity against LPS-induced human monocytes assessed as cell viability at 50 uM by tryphan blue staining based assay relative to control. On the set-up: species or system Monocyte. The note with it: read-out: Activity.
Data set [11] is described as follows: Cytotoxicity against LPS-induced human monocytes assessed as cell viability at 5 uM by tryphan blue staining based assay relative to control. More on the design: species or system Monocyte. The conditions noted are these: read-out: Activity.
The subject of data set [12] is Mycobacterium tuberculosis. Briefly: Antitubercular activity against Mycobacterium tuberculosis H37Rv ATCC 27294 assessed as growth inhibition at 6.25 ug/ml by microplate alamar blue assay relative to control. The class given is functional. On the technique in general: Resazurin is reduced to fluorescent resorufin, in cell work by metabolically active cells.
Data set [13] concerns Mycobacterium tuberculosis. Briefly: Antitubercular activity against Mycobacterium tuberculosis H37Rv ATCC 27294 assessed as inhibition of [3H]-thymidine incorporation. The class given is functional, organism-based. A general note: Dividing cells build labelled thymidine or BrdU into new DNA.
The subject of data set [14] is Mycobacterium tuberculosis. Briefly: Antitubercular activity against Mycobacterium tuberculosis H37Rv ATCC 27294 assessed as inhibition of [3H]-thymidine incorporation relative to control. The class given is functional.
Data set [15] can be described thus: Plasma concentration in rifampin-susceptible Mycobacterium leprae infected in BALB/c mouse at 6 mg/kg administered with food daily for 2 weeks by high-pressure liquid chromatography analysis. The format is ADME, organism-based. The conditions noted are these: po.
Data set [16] can be described thus: Plasma concentration in rifampin-susceptible Mycobacterium leprae infected in BALB/c mouse at 6 mg/kg administered with food daily for 4 weeks by high-pressure liquid chromatography analysis. The conditions noted are these: po. The format is ADME, organism-based.
Data set [17] in a line: Plasma concentration in rifampin-susceptible Mycobacterium leprae infected in BALB/c mouse at 6 mg/kg administered with food daily for 1 week by high-pressure liquid chromatography analysis. The format is ADME, organism-based. The conditions noted are these: po.

In the case of `Brc1ccc(/N=N/c2ccc(NCCCN3CCCCC3)c3c2CCCC3)cc1`, the MST was 19 days in data set [1], 38 days in data set [2] and 11 days in data set [3].

For `CCC1(N2C(=O)c3ccccc3C2=O)C(=O)NC(=O)N(c2ccccc2)C1=O` (stereo not given), the viability at 25 µM in [4] is 73%. The inhibition at 5 µM in data set [5] amounted to 88%. Moreover, in data set [6], the viability at 0.5 µM is 87%. The inhibition at 50 µM in [7] is 100%. The inhibition at 25 µM in [8] worked out at 100%. In addition, the inhibition at 0.5 µM in data set [9] came out at 12%. Also, the viability at 50 µM in data set [10] worked out at 68%. In addition, the viability at 5 µM in data set [11] was 80%.

Consider `OC[C@H]1O[C@@H](n2cnc3c(-c4ccco4)nc(Cl)nc32)[C@H](O)[C@@H]1O`, for which the inhibition at 6.25 µg/mL in data set [12] was found to be 7%. In [13], the IC50 was 3.4 µg/mL (≈ 9.64 µM). Moreover, the “inhibition (INH)” value in data set [14] is listed as 100%.

For `O=C1c2ccccc2C(=O)N1c1ccc(F)c(F)c1`, the viability at 25 µM in [4] is 88%. In addition, the inhibition at 5 µM in [5] was 84%. Further, the viability at 0.5 µM in data set [6] is 92%. Also, the inhibition at 50 µM in [7] worked out at 100%. In [8], the inhibition at 25 µM was 100%. Also, the inhibition at 0.5 µM in [9] was under 10%. For the same compound, the viability at 50 µM in data set [10] worked out at 78%. The viability at 5 µM in data set [11] came to 95%.

In turn, `OO` [HYDROGEN PEROXIDE] returned a concentration at 336 h in [15] of 50 ng/mL. This compound also yielded a concentration at 672 h in [16] of 55 ng/mL. In data set [17], the concentration at 168 h came out at 42 ng/mL.
